This is an account of results in BindingDB's records for doi:10.1016/0960-894X(95)00059-3 (1995).

SMILES strings stand for the structures.

Assay [1] is described as follows: Inhibitory activity against HIV-1 RT with poly.rC-oligo.dG template primer.
For assay [2], the target named is Reverse transcriptase (Human immunodeficiency virus 2). Put plainly: Inhibitory activity against HIV-2 reverse transcriptase.

Compound `O=S(=O)(c1ccccc1)c1c(-c2nc3c([nH]2)CCCC3)[nH]c2ccc(Cl)cc12` [2-(3-Benzenesulfonyl-5-chloro-1H-indol-2-yl)-4,5,6,7-tetrahydro-1H-benzoimidazole] showed a half-inhibitory concentration (IC50) in assay [1] of 8.1 nM.

The compound `O=S(=O)(c1ccccc1)c1c(C2=NCCCN2)[nH]c2ccc(Cl)cc12` [3-Benzenesulfonyl-5-chloro-2-(1,4,5,6-tetrahydro-pyrimidin-2-yl)-1H-indole] had a half-maximal inhibitory concentration (IC50) in assay [1] of 2290 nM.

In turn, `CCc1nc(-c2[nH]c3ccc(Cl)cc3c2S(=O)(=O)c2ccccc2)[nH]c1CC` [3-Benzenesulfonyl-5-chloro-2-(4,5-diethyl-1H-imidazol-2-yl)-1H-indole] displayed an IC50 in assay [1] of 10 nM.

As for `O=S(=O)(c1ccccc1)c1c(C2=NCCS2)[nH]c2ccc(Cl)cc12` [3-Benzenesulfonyl-5-chloro-2-(4,5-dihydro-thiazol-2-yl)-1H-indole], the IC50 in assay [2] is over 300000 nM; in assay [1], 17 nM.

Consider `Cc1nc(-c2[nH]c3ccc(Cl)cc3c2S(=O)(=O)c2ccccc2)[nH]c1C` [3-Benzenesulfonyl-5-chloro-2-(4,5-dimethyl-1H-imidazol-2-yl)-1H-indole], for which the figures for the IC50 in assay [2] and in assay [1] were over 300000 nM and 5.1 nM, respectively.

In assay [1], `CC1(C)CN=C(c2[nH]c3ccc(Cl)cc3c2S(=O)(=O)c2ccccc2)N1` [3-Benzenesulfonyl-5-chloro-2-(5,5-dimethyl-4,5-dihydro-1H-imidazol-2-yl)-1H-indole] displayed an IC50 of 50 nM.

In the case of `O=S(=O)(c1ccccc1)c1c(-n2ccnc2)[nH]c2ccc(Cl)cc12` [3-Benzenesulfonyl-5-chloro-2-imidazol-1-yl-1H-indole], in assay [1], the IC50 was determined as 2380 nM.

`O=S(=O)(c1ccccc1)c1c(C2=N[C@H]3CCCC[C@@H]3N2)[nH]c2ccc(Cl)cc12` [(3aS,7aS)-2-(3-Benzenesulfonyl-5-chloro-1H-indol-2-yl)-3a,4,5,6,7,7a-hexahydro-1H-benzoimidazole] had an IC50 in assay [1] of 29 nM.

Broadly, the IC50 is the point on the concentration scale where inhibition reaches its midpoint.
